Data published in patent US5756504A, “Tocolytic oxytocin receptor antagonists” (priority 1996, dated 1998).
Like-named read-outs stand apart in the source and are kept apart here.

Tests used:
[1] = cited from earlier work
[2] = biological target: T1, oxytocin receptor ([^3 H]OT binding, uterine tissue) (Rattus norvegicus, UniProt P70536); assay: [3H]oxytocin radioligand binding competition assay, rat uterus; design: species or system rat (Sprague-Dawley)
T1 construct: tissue Taconic Farms, Germantown, N.Y. (animals); host or cells: uterus of nonpregnant adult Sprague-Dawley rats pretreated with diethylstilbestrol propionate, crude membranes
T1 sequence (P70536 1-388): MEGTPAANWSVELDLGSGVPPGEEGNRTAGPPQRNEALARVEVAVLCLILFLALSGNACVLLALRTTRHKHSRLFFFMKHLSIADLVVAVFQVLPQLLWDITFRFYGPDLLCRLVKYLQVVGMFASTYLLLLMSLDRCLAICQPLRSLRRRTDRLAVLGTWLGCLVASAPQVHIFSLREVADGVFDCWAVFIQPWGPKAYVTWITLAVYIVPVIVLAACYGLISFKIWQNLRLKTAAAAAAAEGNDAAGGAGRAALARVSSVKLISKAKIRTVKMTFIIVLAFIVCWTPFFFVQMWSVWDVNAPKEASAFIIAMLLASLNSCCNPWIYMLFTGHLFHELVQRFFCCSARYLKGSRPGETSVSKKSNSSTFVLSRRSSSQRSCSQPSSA
Experimental: RADIOLIGAND BINDING ASSAYS
Ther., 256(1): 304-308 (1991)]. Uterine tissue was taken from nonpregnant adult Sprague-Dawley rats (Taconic Farms, Germantown, N.Y.) pretreated (18-24 h) with diethylstilbestrol propionate (DES; 300 μg/kg, i.p.). Uterine tissue (full thickness) was also taken with informed consent from nonlabor pregnant women undergoing cesarean section at 38 to 39 weeks gestation (Oregon Health Sciences Center, Portland, Oreg.). Liver and kidney medulla samples were taken from male rats and from human surgical and early postmortem donors (National Disease Research Interchange, Philadelphia Pa.; Analytical Biological Services, Wilmington, Del.).
Nonspecific binding was determined using 1 μM unlabeled OT or AVP in their respective assays. The binding reactions were initiated by the addition of tissue preparation and terminated by filtration using a Skatron cell harvester (model 7019, Skatron, Inc., Sterling, Va.). […] The final protein concentration for the various tissues in each assay ranged from 150 to 300 μg/ml [Lowry, P. H.; Rosebrough, N. J.; Farr, A. L.; Randall, R. J.; J. Biol. Chem., 193:265-275 (1951)].
Data is either reported as a given percentage of inhibition at a specified concentration,or if an IC50 was calculated, as a nanomolar concentration.

uterus = assay: uterine contraction in situ in nonpregnant rat; format: in vivo, rat (Sprague-Dawley); conditions: i.v., DES-pretreated anesthetized rats
Experimental: 2. OT antagonist activity in the nonpregnant rat
The procedure for measuring isometric contraction of the uterus in situ was adapted from that of Chan et al. [1974] as previously described [Pettibone et al., 1989]. Sprague-Dawley rats (200-300 g, Taconic Farms, Germantown, N.Y.) pretreated with DES (0.25 mg/kg, i.p.; 18 h) were anesthetized with urethane (1.75 g/kg, i.p.), a tracheal cannula was inserted, and a femoral vein was cannulated. The left uterine horn was exposed, and the anterior part of the horn was secured with surgical silk to an anchor post. A second ligature about 3 cm posterior to the first tie was connected to a force transducer and maintained at a tension of 1 g. Signals from the transducer were amplified and recorded. The contractile response of the uterus to OT was quantified by computerized measurement of the area under the contraction-time curve for a 10-min period immediately after the injection of OT. The following protocol was adopted for most experiments. […] The contractile response obtained from the third injection was set as 100%. Areas determined after each injection was expressed as a percentage of the area obtained for the third injection. […] The dose of test compound required to reduce the response to OT by 50% (AD50) was calculated from the contractile areas obtained after the fourth injection of OT (i.e., 5 min postinfusion of test compound). […]

[3] = compared with ritodrine; cited from earlier work

Compound | IC50 [2] [nM] | also measured
CC(C)(C)NCC(O)c1cc(O)cc(O)c1 (stereo not drawn) [terbutaline] | – | side effects ([1]; tocolytic use, in the mother): side effects similar to those of ritodrine
CC(C)(C)NCC(O)c1ccc(O)c(CO)c1 (stereo not drawn) [albuterol] | – | side effects ([1]; in vivo): side effects similar to those of ritodrine
O=S(=O)([O-])[O-].[Mg+2] [Magnesium sulfate] | – | toxicity above therapeutic plasma range ([1]; plasma concentrations above 4 to 8 mg/dL): can cause inhibition of cardiac conduction and neuromuscular transmission, respiratory depression and cardiac arrest
CC(NCCc1ccc(O)cc1)C(O)c1ccc(O)cc1 (stereo not drawn) [Ritodrine] | – | side effects ([1]; tocolytic use, in the mother): causes a number of cardiovascular and metabolic side effects in the mother, including tachycardia, increased renin secretion, hyperglycemia (and reactive hypoglycemia in the infant)
CC[C@H](C)[C@@H]1NC(=O)[C@H](Cc2ccc(O)cc2)NC(=O)[C@@H](N)CSSC[C@@H](C(=O)N2CCC[C@H]2C(=O)N[C@@H](CC(C)C)C(=O)NCC(N)=O)NC(=O)[C@H](CC(N)=O)NC(=O)[C@H](CCC(N)=O)NC1=O [OT, oxytocin] | – | ED50 dose of OT (uterine contraction) (uterus): ~1 µg/kg
COc1cc(OC2CCN(Cc3cccnc3)CC2)ccc1CC(=O)N1CCN(c2ccccc2C)CC1C(N)=O (stereo not drawn) [Example 15, 1-(2-Methoxy-4-(-1-((pyrid-3-yl)methyl)-4-piperidyloxy)phenylacetyl)-4-(2-methylphenyl) piperazine-2-carboxamide] | 28 | –
O=C(Nc1ccc(CC(=O)N2CCC3(C=Cc4ccccc43)CC2)cc1)c1ccc2cc[nH]c2c1 [Example 4, 1'-(4-(Indole-6-carboxylamino)phenylacetyl)spiro[1H]indene-1,4'-piperidine] | 1600 | –
COc1cc(OC2CCN(c3c(O)c(=O)c3=O)CC2)ccc1CC(=O)N1CCN(c2ccccc2C)CC1C(N)=O (stereo not drawn) [Example 14, 1-(2-Methoxy-4-(1-(3-hydroxy-3-cyclobutene-1,2-dion-4-y)-4-piperidyloxy)phenylacetyl)-4-(2-methylphenyl)piperazine-2-carboxamide] | – | IC50 ([2]; read-out: Result For [^3 H]OT (IC50), rat uterus membranes, 1 nM [^3 H]OT): 24 nM
COc1ccc(CC(=O)N2CCN(c3ccccc3C)CC2)c(OC)c1 [Example 6, 1-(2,4-Dimethoxyphenylacetyl)-4-(2-methylphenyl)piperazine] | 540 | –
CCO [Ethanol] | – | effectiveness in preventing premature labor [3]: as effective as ritodrine in preventing premature labor; reduction in incidence of fetal respiratory distress [3]: does not produce a corresponding reduction in the incidence of fetal respiratory distress
COc1cc(OC2CCN(S(=O)(=O)CCNC3CC3)CC2)ccc1CC(=O)N1CCN(c2ccccc2C)CC1C(N)=O (stereo not drawn) [Example 12, 1-(2-Methoxy-4-(1-(2-(N-cyclopropylamino)-ethylsulfonyl)-4-piperidyloxy)phenylacetyl)-4-(2-methylphenyl)piperazine-2-carboxamide] | 20 | –
COc1ccc(CC(=O)N2CCN(c3ccccc3C)CC2C(N)=O)c(OC)c1 (stereo not drawn) [Example 7, 1-(2,4-Dimethoxyphenylacetyl)-4-(2-methylphenyl)piperazine-2-carboxamide] | 80 | –

Now from value to compound, other results behind:

IC50 [2] [nM] | Compound | also measured
30 | Cc1ccccc1N1CCN(C(=O)Cc2ccc(NC(=O)c3ccc4[nH]cnc4c3)cc2)C(C(N)=O)C1 (stereo not drawn) [Example 8, 1-(4-(Benzimidazol-5-carboxylamino)phenylacetyl)-4-(2-methylphenyl)piperazine-2-carboxamide] | –
120 | O=C(Nc1ccc(CC(=O)N2CCC3(C=Cc4ccccc43)CC2c2ccccc2)cc1)c1ccc2[nH]cnc2c1 (stereo not drawn) [Example 2, 1'-(4-(Benzimidazole-5-carboxylamino)phenylacetyl)-2'-phenylspiro[1H]indene-1,4'-piperidine] | –
21 | CCN(CC)CCS(=O)(=O)N1CCC(Oc2ccc(CC(=O)N3CCN(c4ccccc4C)CC3C(N)=O)c(OC)c2)CC1 (stereo not drawn) [Example 11, 1-(2-Methoxy-4-(1-(2-(N,N-Diethylamino)ethylsulfonyl)-4-piperidyloxy)phenylacetyl)-4-(2-methylphenyl)piperazine-2-carboxamide] | –
400 | COc1ccc(CC(=O)N2CCC3(C=Cc4ccccc43)CC2)c(OC)c1 [Example 1, 1'-(2,4-Dimethoxyphenylacetyl)-spiro[1H]indene-1,4'-piperidine] | –
34 | COc1cc(OC2CCN(C(C)=O)CC2)ccc1CC(=O)N1CCN(c2ccccc2C)CC1C(N)=O (stereo not drawn) [Example 9, 1-(2-Methoxy-4-(1-acetyl-4-piperidyloxy)phenylacetyl)-4-(2-methylphenyl)piperazine-2-carboxamide] | –
